# Assay results: US7553838B2, “Mitotic kinesin inhibitors” (Merck & Co. Inc., priority 2004, dated 2009)
# pIC50: −log10 of the molar value.
# Target: T1, human poly-histidine tagged KSP motor domain (KSP(367H)) (Homo sapiens, UniProt P52732)
# T1 construct: were used to amplify the motor domain and the neck linker region; made in house; host or cells: E. coli BL21 (DE3), pRSETa
# T1 sequence (P52732 18-359 limits assumed): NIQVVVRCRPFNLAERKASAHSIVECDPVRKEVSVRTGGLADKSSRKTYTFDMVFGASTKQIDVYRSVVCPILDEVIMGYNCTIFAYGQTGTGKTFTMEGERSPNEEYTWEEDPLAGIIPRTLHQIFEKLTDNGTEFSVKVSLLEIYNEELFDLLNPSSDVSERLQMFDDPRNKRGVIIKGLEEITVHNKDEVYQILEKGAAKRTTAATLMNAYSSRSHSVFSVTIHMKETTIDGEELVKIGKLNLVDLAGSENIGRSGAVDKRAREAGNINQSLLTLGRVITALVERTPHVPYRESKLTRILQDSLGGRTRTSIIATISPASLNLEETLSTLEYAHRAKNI
# Test: Kinesin ATPase In Vitro Assay
# Type: biochemical
# Conditions: microtubules, 1 mM ATP, 23° C.; free phosphate by quinaldine red/ammonium molybdate
# From the text: I. Kinesin ATPase In Vitro Assay
# Cloning and expression of human poly-histidine tagged KSP motor domain (KSP(367H))
# Plasmids for the expression of the human KSP motor domain construct were cloned by PCR using a pBluescript full length human KSP construct (Blangy et al., Cell, vol. 83, pp 1159-1169, 1995) as a template. The N-terminal primer 5′-[…] (SEQ.ID.NO.: 1) and the C-terminal primer 5′-[…] […] (SEQ.ID.NO.: 2) were used to amplify the motor domain and the neck linker region. The PCR products were digested with AseI and XhoI, ligated into the NdeI/XhoI digestion product of pRSETa (Invitrogen) and transformed into E. coli BL21 (DE3).
# Cells were grown at 37° C. to an OD600 of 0.5. […]
# The kinesin motor domain is incubated with microtubules, 1 mM ATP (1:1 MgCl2: Na-ATP), and compound at 23° C. in buffer containing 80 mM K-HEPES (pH 7.0), 1 mM EGTA, 1 mM DTT, 1 mM MgCl2, and 50 mM KCl. […] Free phosphate from the ATP hydrolysis reaction is measured via a quinaldine red/ammonium molybdate assay by adding 150 μl of quench C buffer containing a 2:1 ratio of quench A:quench B. Quench A contains 0.1 mg/ml quinaldine red and 0.14% polyvinyl alcohol; quench B contains 12.3 mM ammonium molybdate tetrahydrate in 1.15 M sulfuric acid. The reaction is incubated for 10 minutes at 23° C., and the absorbance of the phospho-molybdate complex is measured at 540 nm.
compound,measurement,value
"CC(C(=O)N1N=C(c2cc(F)ccc2F)CC1(CO)c1ccccc1)N1CCN(C)CC1 (racemic) [Compound 3-4, {3-(2,5-difluorophenyl)-1-[2-(4-methylpiperazin-1-yl)propanoyl]-5-phenyl-4,5-dihydro-1H-pyrazol-5-yl}methanol]",pIC50,≥ 4.30
